Laboratory results from US8088806B2 (Achillion Pharmaceuticals, Inc., priority 2005, dated 2012).

Tested on: HCV replicon
Test: Replicon based assay of HCV replication inhibition (NPT ELISA)
Assay type: cell-based, Hepatitis C virus
Conditions: Hepatitis C virus, Huh-7, 72 h, Table I; Huh-7 HCV replicon-containing cells, three days; read-out: Activity
Outline: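 Huh-7 cells carrying a bicistronic HCV replicon (neo, EMCV-IRES-driven NS3–NS5B) treated overnight after seeding with usually 6 concentrations, 10 to 0.03 micromolar, for three days at 37° C without G418. Replication read as NPT level by captured ELISA; matched-DMSO wells and interferon alpha as controls.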

Structure (SMILES) | EC50 [µM]
COc1ccc(OC)c(Nc2nc(-c3c(C)nc4sccn34)cs2)c1 [compound 164, N-(2,5-dimethoxyphenyl)-4-(6-methylimidazo[2,1-b]thiazol-5-yl)thiazol-2-amine] | > 10
COc1ccc(Nc2nc(-c3c(C)nc4sccn34)cs2)cc1 [compound 165, N-(4-methoxyphenyl)-4-(6-methylimidazo[2,1-b]thiazol-5-yl)thiazol-2-amine] | < 1
CC(=O)c1cccc(Nc2nc(-c3c(C)nc4cc(C)ccn34)cs2)c1 [compound 167, 1-(3-(4-(2,7-dimethylH-imidazo[1,2-a]pyridin-3-yl)thiazol-2-ylamino)phenyl)ethanone] | > 10
Cc1c(-c2csc(Nc3ccccc3)n2)sc2ncnn12 [compound 168, 4-(6-methylthiazolo[3,2-b][1,2,4]triazol-5-yl)-N-phenylthiazol-2-amine] | 1 to 10
COc1ccc(-c2csc(Nc3ccc4c(c3)OCO4)n2)cc1F [compound 169, N-(benzo[d][1,3]dioxol-5-yl)-4-(3-fluoro-4-methoxyphenyl)thiazol-2-amine] | > 10
Cc1ccnc(Nc2nc(-c3c(C)nc4sccn34)cs2)c1 [compound 170, 4-methyl-N-(4-(6-methylimidazo[2,1-b]thiazol-5-yl)thiazol-2-yl)pyridin-2-amine] | > 10
CCCCCOc1ccc(Nc2nc(CN3CCOCC3)cs2)cc1C(F)(F)F [compound 171, N-(3-(trifluoromethyl)-4-(pentyloxy)phenyl)-4-(morpholinomethyl)thiazol-2-amine] | < 1
CCCCCOc1ccc(Nc2nc(CN(C)C)cs2)cc1C(F)(F)F [compound 172, 4-((dimethylamino)methyl)-N-(3-(trifluoromethyl)-4-(pentyloxy)phenyl)thiazol-2-amine] | < 1
CCCCCOc1ccc(N(C(C)=O)c2nc(C(=O)Nc3cccnc3)cs2)cc1C(F)(F)F [compound 173, 2-(N-(3-(trifluoromethyl)-4-(pentyloxy)phenyl)acetamido)-N-(pyridin-3-yl)thiazole-4-carboxamide] | > 10
CCCCCOc1ccc(Nc2nc(-c3cccc(F)c3)cs2)cc1F [compound 174, N-(3-fluoro-4-(pentyloxy)phenyl)-4-(3-fluorophenyl)thiazol-2-amine] | < 1
CCCCCOc1ccc(Nc2nc(-c3cc(-c4ccc(Cl)c(Cl)c4)no3)cs2)cc1F [compound 175, 4-(3-(3,4-dichlorophenyl)isoxazol-5-yl)-N-(3-fluoro-4-(pentyloxy)phenyl)thiazol-2-amine] | > 10
CCCCCOc1ccc(Nc2nc(-c3cc(C(=O)OCC)no3)cs2)cc1F [compound 176, ethyl 5-(2-(3-fluoro-4-(pentyloxy)phenylamino)thiazol-4-yl)isoxazole-3-carboxylate] | > 10
CCCCCOc1ccc(Nc2nc(-c3ccccc3Cl)cs2)cc1F [compound 177, 4-(2-chlorophenyl)-N-(3-fluoro-4-(pentyloxy)phenyl)thiazol-2-amine] | < 1
CCCCCOc1ccc(Nc2nc(-c3cccc(F)c3)cs2)cn1 [compound 178, N-(4-(3-fluorophenyl)thiazol-2-yl)-6-(pentyloxy)pyridin-3-amine] | < 1
CCCCCOc1ccc(Nc2nc(-c3cc(-c4ccc(Cl)c(Cl)c4)no3)cs2)cn1 [compound 179, N-(4-(3-(3,4-dichlorophenyi)isoxazol-5-yl)thiazol-2-yl)-6-(pentyloxy)pyridin-3-amine] | > 10
CCCCCOc1ccc(Nc2nc(-c3cc(C(=O)OCC)no3)cs2)cn1 [compound 180, ethyl 5-(2-(6-(pentyloxy)pyridin-3-ylamino)thiazol-4-yl)isoxazole-3-carboxylate] | > 10
CCCCCOc1ccc(Nc2nc(-c3ccccc3Cl)cs2)cn1 [compound 181, N-(4-(2-chlorophenyl)thiazol-2-yl)-6-(pentyloxy)pyridin-3-amine] | < 1
CCCCCc1ccc(Nc2nc(-c3ccc(CC(=O)O)cc3)c(C)s2)cc1 [compound 182, 2-(4-(2-(4-pentylphenylamino)-5-methylthiazol-4-yl)phenyl)acetic acid] | < 1
CCCCCc1ccc(Nc2nc(-c3cccc(F)c3)cs2)cc1 [compound 183, 4-(3-fluorophenyl)-N-(4-pentylphenyl)thiazol-2-amine] | < 1
CCCCCc1ccc(Nc2nc(-c3cc(-c4ccc(Cl)c(Cl)c4)no3)cs2)cc1 [compound 184, 4-(3-(3,4-dichlorophenyl)isoxazol-5-yl)-N-(4-pentylphenyl)thiazol-2-amine] | > 10
CCCCCc1ccc(Nc2nc(-c3cc(C(=O)OCC)no3)cs2)cc1 [compound 185, ethyl 5-(2-(4-pentylphenylamino)thiazol-4-yl)isoxazole-3-carboxylate] | > 10
CCCCCc1ccc(Nc2nc(-c3ccccc3Cl)cs2)cc1 [compound 186, 4-(2-chlorophenyl)-N-(4-pentylphenyl)thiazol-2-amine] | > 10

Structure (SMILES) | EC50 [µM]
Cc1sc(Nc2cccc(Oc3ccccc3)c2)nc1-c1ccc(CC(=O)O)cc1 [compound 187, 2-(4-(2-(3-phenoxyphenylamino)-5-methylthiazol-4-yl)phenyl)acetic acid] | < 1
Fc1cccc(-c2csc(Nc3cccc(Oc4ccccc4)c3)n2)c1 [compound 188, 4-(3-fluorophenyl)-N-(3-phenoxyphenyl)thiazol-2-amine] | < 1
Clc1ccc(-c2cc(-c3csc(Nc4cccc(Oc5ccccc5)c4)n3)on2)cc1Cl [compound 189, 4-(3-(3,4-dichlorophenyl)isoxazol-5-yl)-N-(3-phenoxyphenyl)thiazol-2-amine] | > 10
CCOC(=O)c1cc(-c2csc(Nc3cccc(Oc4ccccc4)c3)n2)on1 [compound 190, ethyl S-(2-(3-phenoxyphenylamino)thiazol-4-yl)isoxazole-3-carboxylate] | > 10
Clc1ccccc1-c1csc(Nc2cccc(Oc3ccccc3)c2)n1 [compound 191, 4-(2-chlorophenyl)-N-(3-phenoxyphenyl)thiazol-2-amine] | < 1
Cc1sc(Nc2cccc(OCc3ccccc3)c2)nc1-c1ccc(CC(=O)O)cc1 [compound 192, 2-(4-(2-(3-(benzyloxy)phenylamino)-5-methylthiazol-4-yl)phenyl)acetic acid] | < 1
Fc1cccc(-c2csc(Nc3cccc(OCc4ccccc4)c3)n2)c1 [compound 193, N-(3-(benzyloxy)phenyl)-4-(3-fluorophenyl)thiazol-2-amine] | < 1
Clc1ccc(-c2cc(-c3csc(Nc4cccc(OCc5ccccc5)c4)n3)on2)cc1Cl [compound 194, N-(3-(benzyloxy)phenyl)-4-(3-(3,4-dichlorophenyl)isoxazol-5-yl)thiazol-2-amine] | > 10
CCOC(=O)c1cc(-c2csc(Nc3cccc(OCc4ccccc4)c3)n2)on1 [compound 195, ethyl 5-(2-(3-(benzyloxy)phenylamino)thiazol-4-yl)isoxazole-3-carboxylate] | > 10
Clc1ccccc1-c1csc(Nc2cccc(OCc3ccccc3)c2)n1 [compound 196, N-(3-(benzyloxy)phenyl)-4-(2-chlorophenyl)thiazol-2-amine] | < 1
CCCCCOc1ccc(Nc2nc(-c3ccc(CC(=O)O)cc3)c(C)s2)cc1C(F)(F)F [compound 197, 2-(4-(2-(3-(trifluoromethyl)-4-(pentloxy)phenylamino)-5-methylthiazol-4-yl)phenyl)acetic acid] | < 1
CCCCCOc1ccc(Nc2nc(-c3cccc(F)c3)cs2)cc1C(F)(F)F [compound 198, N-(3-(trifluoromethyl)-4-(pentyloxy)phenyl)-4-(3-fluorophenyl)thiazol-2-amine] | < 1
CCCCCOc1ccc(Nc2nc(-c3ccc4c(c3)NC(=O)CO4)cs2)cc1C(F)(F)F [compound 199, 6-(2-(3-(trifluoromethyl)-4-(pentyloxy)phenylamino)thiazol-4-yl)-2H-benzo[b][1,4]oxazin-3(4H)-one] | < 1
CCCCCOc1ccc(Nc2nc(-c3ccc(CC(=O)O)s3)cs2)cc1C(F)(F)F [compound 200, 2-(5-(2-(3-(trifluoromethyl)-4-(pentyloxy)phenylamino)thiazol-4-yl)thiophen-2-yl)acetic acid] | < 1
CCCCCOc1ccc(Nc2nc(-c3cc(-c4ccc(Cl)c(Cl)c4)no3)cs2)cc1C(F)(F)F [compound 201, 4-(3-(3,4-dichlorophenyl)isoxazol-5-yl)-N-(3-(trifluoromethyl)-4-(pentyloxy)phenyl)thiazol-2-amine] | > 10
CCCCCOc1ccc(Nc2nc(-c3cc(C(=O)OCC)no3)cs2)cc1C(F)(F)F [compound 202, ethyl 5-(2-(3-(trifluoromethyl)-4-(pentyloxy)phenylamino)thiazol-4-yl)isoxazole-3-carboxylate] | < 1
CCCCCOc1ccc(Nc2nc(-c3ccccc3Cl)cs2)cc1C(F)(F)F [compound 203, 4-(2-chlorophenyl)-N-(3-(trifluoromethyl)-4-(pentyloxy)phenyl)thiazol-2-amine] | < 1
CCCCCOc1ccc(Nc2nc(C(=O)CBr)cs2)cc1C(F)(F)F [compound 204, 1-(2-(3-(trifluoromethyl)-4-(pentyloxy)phenylamino)thiazol-4-yl)-2-bromoethanone] | < 1
COc1cccc2sc(Nc3nc(-c4ccncc4)cs3)nc12 [compound 205, 4-methoxy-N-(4-(pyridin-4-yl)thiazol-2-yl)benzo[d]thiazol-2-amine] | < 1
Fc1ccc2nc(Nc3nc(-c4cccnc4)cs3)sc2c1 [compound 206, 6-fluoro-N-(4-(pyridin-3-yl)thiazol-2-yl)benzo[d]thiazol-2-amine] | 1 to 10
COc1cccc2sc(Nc3nc(-c4cccnc4)cs3)nc12 [compound 207, 4-methoxy-N-(4-(pyridin-3-yl)thiazol-2-yl)benzo[d]thiazol-2-amine] | 1 to 10
CCCCCOc1ccc(Nc2nc(N)cs2)cc1C(F)(F)F [compound 208, N2-(3-(trifluoromethyl)-4-(pentyloxy)phenyl)thiazole-2,4-diamine] | 1 to 10
